Results as given in publication PMC8657855 (International Journal of Molecular Sciences, 2021).
In brackets after ≈: the same amount, converted by molar mass.

What was measured:
Experiment in all cases: microbe, parasite or virus in culture
[1] = system: Xanthomonas oryzae pv. oryzicola Xoc; details: for inhibition at 10 µg/mL: read-out: Inhibition (%) 10 (mg/L); for inhibition at 50 µg/mL: read-out: Inhibition (%) 50 (mg/L)
[2] = system: Xanthomonas oryzae pv. oryzae Xoo; details: for inhibition at 10 µg/mL: read-out: Inhibition (%) 10 (mg/L); for inhibition at 50 µg/mL: read-out: Inhibition (%) 50 (mg/L)
[3] = system: Xanthomonas oryzae pv. oryzae Xoo; details: read-out: EC50 (mg/L) Xoo
[4] = system: Xanthomonas oryzae pv. oryzicola Xoc; details: read-out: EC50 (mg/L) Xoc

SMILES	inhibition at 10 µg/mL [1] [%]	inhibition at 50 µg/mL [1] [%]	inhibition at 10 µg/mL [2] [%]	inhibition at 50 µg/mL [2] [%]	EC50 [3] [mg/L]	EC50 [4] [mg/L]
S=c1[nH]nc(NCNc2n[nH]c(=S)s2)s1 [BT, Bismerthiazol]	7 ± 1.7	27 ± 1.7	2.5 ± 1.6	27.4 ± 5	83.1 ± 8.07 (≈ 298 µM)	105.9 ± 0.56 (≈ 380 µM)
CS(=O)(=O)c1nnc(CNC(=O)C=Cc2cccs2)o1 [compound 1, N-((5-(methylsulfonyl)-1,3,4-oxadiazol-2-yl)methyl)-3-(thiophen-2-yl)acrylamide]	97.3 ± 1.8	98.3 ± 0.9	96.2 ± 1.5	97.6 ± 1.2	0.68 ± 0.07 (≈ 2.17 µM)	0.86 ± 0.08 (≈ 2.74 µM)
CCS(=O)(=O)c1nnc(CNC(=O)C=Cc2cccs2)o1 [compound 2, N-((5-(ethylsulfonyl)-1,3,4-oxadiazol-2-yl)methyl)-3-(thiophen-2-yl)acrylamide]	96.9 ± 0.3	97.5 ± 0.8	85 ± 4.1	90.6 ± 8.6	0.72 ± 0.07 (≈ 2.2 µM)	3.41 ± 0.05 (≈ 10.4 µM)
CS(=O)(=O)c1nnc(CNC(=O)c2ccc(Cl)s2)o1 [compound 3, 5-chloro-N-((5-(methylsulfonyl)-1,3,4-oxadiazol-2-yl)methyl)thiophene-2-car boxamide]	98 ± 0.2	98.3 ± 1.3	98.6 ± 0.8	95.8 ± 2.6	0.53 ± 0.07 (≈ 1.65 µM)	1.06 ± 0.04 (≈ 3.29 µM)
CCS(=O)(=O)c1nnc(CNC(=O)c2ccc(Cl)s2)o1 [compound 4, 5-chloro-N-((5-(ethylsulfonyl)-1,3,4-oxadiazol-2-yl)methyl)thiophene-2-carb oxamide]	96.9 ± 1.1	99 ± 0.2	98.3 ± 1	97.9 ± 1.5	0.45 ± 0.04 (≈ 1.34 µM)	0.83 ± 0.01 (≈ 2.47 µM)
CS(=O)(=O)c1nnc(CNC(=O)c2ccc(Br)o2)o1 [compound 5, 5-bromo-N-((5-(methylsulfonyl)-1,3,4-oxadiazol-2-yl)methyl)furan-2-carbox amide]	99.3 ± 0.1	97.8 ± 2	96.3 ± 2.5	96.6 ± 0.4	0.48 ± 0.01 (≈ 1.37 µM)	2.59 ± 0.05 (≈ 7.4 µM)
CS(=O)(=O)c1nnc(CNC(=O)c2ncc(C(F)(F)F)cc2Cl)o1 [compound 6, 3-chloro-N-((5-(methylsulfonyl)-1,3,4-oxadiazol-2-yl)methyl)-5-(trifluoromethyl)picolinamide]	95.5 ± 0.8	99.3 ± 0.2	94.8 ± 1.8	99.7 ± 0.2	3.49 ± 0.07 (≈ 9.07 µM)	3.31 ± 0.09 (≈ 8.6 µM)
CCS(=O)(=O)c1nnc(CNC(=O)c2ncc(C(F)(F)F)cc2Cl)o1 [compound 7, 3-chloro-N-((5-(ethylsulfonyl)-1,3,4-oxadiazol-2-yl)methyl)-5-(trifluoromethyl)picolinamide]	40.1 ± 1.3	99.6 ± 0.2	48.1 ± 0.8	99.8 ± 0.1	7.45 ± 0.16 (≈ 18.7 µM)	7.58 ± 0.27 (≈ 19 µM)
CS(=O)(=O)c1nnc(CNC(=O)C=Cc2ccccc2)o1 [compound 8, N-((5-(methylsulfonyl)-1,3,4-oxadiazol-2-yl)methyl)cinnamamide]	98.8 ± 0.7	92.3 ± 7.3	99.7 ± 0.3	98.9 ± 0.5	0.73 ± 0.08 (≈ 2.38 µM)	0.7 ± 0.01 (≈ 2.28 µM)
CCS(=O)(=O)c1nnc(CNC(=O)C=Cc2ccccc2)o1 [compound 9, N-((5-(ethylsulfonyl)-1,3,4-oxadiazol-2-yl)methyl)cinnamamide]	97.1 ± 1.6	98 ± 1.7	100	97.6 ± 1.4	0.89 ± 0.12 (≈ 2.77 µM)	0.78 ± 0.01 (≈ 2.43 µM)
CS(=O)(=O)c1nnc(CNC(=O)C=Cc2ccc(F)cc2)o1 [compound 10, 3-(4-fluorophenyl)-N-((5-(methylsulfonyl)-1,3,4-oxadiazol-2-yl)methyl)acrylamide]	99 ± 0.8	95.6 ± 1	99 ± 0.3	99.5 ± 0.1	0.36 ± 0.03 (≈ 1.11 µM)	0.53 ± 0.01 (≈ 1.63 µM)
CCS(=O)(=O)c1nnc(CNC(=O)C=Cc2ccc(F)cc2)o1 [compound 11, N-((5-(ethylsulfonyl)-1,3,4-oxadiazol-2-yl)methyl)-3-(4-fluorophenyl)acrylamide]	50.6 ± 2.1	99 ± 1.3	98.8 ± 0.1	99.2 ± 0.4	0.72 ± 0.05 (≈ 2.12 µM)	10.8 ± 2.91 (≈ 31.7 µM)
Cc1ccc(C=CC(=O)NCc2nnc(S(C)(=O)=O)o2)cc1 [compound 12, N-((5-(methylsulfonyl)-1,3,4-oxadiazol-2-yl)methyl)-3-(p-tolyl)acrylamide]	96.9 ± 2.3	95.6 ± 2.1	99.5 ± 0.1	99.8 ± 0.2	0.52 ± 0.04 (≈ 1.62 µM)	0.64 ± 0.05 (≈ 1.99 µM)
